Source: ChEMBL document CHEMBL5143574, “Unraveling the anti-virulence potential and antifungal efficacy of 5-aminotetrazoles using the zebrafish model of disseminated candidiasis” (Eur J Med Chem, 2022)
Calls of active or inactive are those of the source. No cut-off for these calls is given here.

Assays:
Candida albicans [1] = test: Anti-virulence activity against Candida albicans SC5314 assessed as inhibition of fungal filamentation by measuring reduction of hyphae formation in SLAD medium at 1.3 uM incubated for 3 to 5 days by stereomicroscopic analysis; assay type: functional, organism-based; settings: time 3-5 day
Candida albicans [2] = test: Anti-virulence activity against Candida albicans SC5314 assessed as inhibition of fungal filamentation by measuring reduction of hyphae formation in Spider medium at 2.5 uM incubated for 3 to 5 days by stereomicroscopic analysis; assay type: functional; settings: time 3-5 day
[3] = Toxicity in zebrafish embryos assessed as toxic responses at 200 uM treated at 6 hpf and measured at 120 hpf by stereomicroscopic analysis; design: species or system Danio rerio; settings: in vivo, 24 h
Candida albicans [4] = test: Anti-virulence activity against Candida albicans SC5314 assessed as inhibition of fungal filamentation by measuring reduction of hyphae formation in SLAD medium at 2.5 uM incubated for 3 to 5 days by stereomicroscopic analysis; assay type: functional; settings: time 3-5 day
Candida albicans [5] = test: Anti-virulence activity against 120-140 RFP expressing cells of Candida albicans M137 infected in hind brain of zebra fish embryo disseminated candidiasis model assessed as inhibition of fungal filamentation by measuring reduction of fungal hyphae formation at 10 uM in presence of 0.25 ug/ml nystatin measured at 120 hpf; assay type: functional
Candida albicans [6] = test: (§1) Anti-virulence activity against 53-75 RFP expressing cells of Candida albicans M137 in hind brain of zebra fish embryo disseminated candidiasis model assessed as reduction in mortality by measuring embryo survival rate treated at 1 hr post-infection and measured on day 4 post infection relative to control; assay type: functional; settings: time 4 day
Candida albicans [7] = test: Antifungal activity against Candida albicans SC5314 assessed as inhibition of fungal growth incubated for 24 hrs by broth microdilution assay; assay type: functional
Candida albicans [8] = test: Anti-virulence activity against 120-140 RFP expressing cells of Candida albicans M137 infected in hind brain of zebra fish embryo disseminated candidiasis model assessed as embryo survival rate upto 10 uM in presence of 0.13 to 1 ug/ml nystatin measured at 120 hpf; assay type: functional; settings: up to 10 µM
Candida albicans [9] = test: Anti-virulence activity against Candida albicans SC5314 assessed as inhibition of fungal filamentation by measuring reduction of hyphae formation in Lee medium at 1.3 uM incubated for 3 to 5 days by stereomicroscopic analysis; assay type: functional, organism-based; settings: time 3-5 day
Candida albicans [10] = test: Anti-virulence activity against Candida albicans SC5314 assessed as inhibition of fungal filamentation by measuring reduction of hyphae formation in GlcNAc medium at 2.5 uM incubated for 3 to 5 days by stereomicroscopic analysis; assay type: functional; settings: time 3-5 day
Candida albicans [11] = test: Anti-virulence activity against Candida albicans SC5314 assessed as inhibition of fungal filamentation by measuring reduction of hyphae formation in YPS plus uridine medium at 1.3 uM incubated for 3 to 5 days by stereomicroscopic analysis; assay type: functional, organism-based; settings: time 3-5 day
Candida albicans [12] = test: Anti-virulence activity against 53-75 RFP expressing cells of Candida albicans M137 in hind brain of zebra fish embryo disseminated candidiasis model assessed as inhibition of fungal filamentation by measuring reduction of hyphae formation in the hind brain at 2.5 to 10 uM treated at 1 hr post-infection and measured on day 4 post infection by fluorescence microscopy; assay type: functional; design: scale not given: the % may be the effect or the level left; settings: dose 2.5-10 µM, time 4 day
Candida albicans [13] = test: Anti-virulence activity against 120-140 RFP expressing cells of Candida albicans M137 infected in hind brain of zebra fish embryo disseminated candidiasis model assessed as embryo mortality at 10 uM measured at 120 hpf; assay type: functional
[14] = Reduction of nystatin resistance against Candida albicans SC5314 assessed as nystatin MIC at 5 to 10 uM measured after consecutive treatment with nystatin for 12 days; assay type: functional; settings: SC5314, 288 h, dose 5-10 µM
Candida albicans [15] = test: Anti-virulence activity against Candida albicans SC5314 assessed as inhibition of fungal filamentation by measuring reduction in hyphae formation in Lee medium upto 10 uM incubated for 3 to 5 days by stereomicroscopic analysis; assay type: functional, organism-based; settings: time 3-5 day
Candida albicans [16] = test: Anti-virulence activity against Candida albicans SC5314 assessed as inhibition of fungal filamentation by measuring reduction of hyphae formation in RPMI medium upto 10 uM incubated for 3 to 5 days by stereomicroscopic analysis; assay type: functional, organism-based; settings: time 3-5 day
Candida albicans [17] = test: Anti-virulence activity against Candida albicans SC5314 assessed as inhibition of fungal filamentation by measuring reduction of hyphae formation in YPS medium at 2.5 uM incubated for 3 to 5 days by stereomicroscopic analysis; assay type: functional; settings: time 3-5 day
Candida albicans [18] = test: Anti-virulence activity against Candida albicans SC5314 assessed as inhibition of fungal filamentation by measuring reduction of hyphae formation in YPS medium at 1.3 uM incubated for 3 to 5 days by stereomicroscopic analysis; assay type: functional, organism-based; settings: time 3-5 day
Candida albicans [19] = test: Indifferent antifungal activity against Candida albicans SC5314 assessed as fractional inhibitory concentration index incubated for 24 hrs in RPMI medium in presence of nystatin by checkerboard assay; assay type: functional
Candida albicans [20] = test: Anti-virulence activity against 120-140 RFP expressing cells of Candida albicans M137 expressing infected in hind brain of zebra fish embryo disseminated candidiasis model assessed as inhibition of fungal filamentation by measuring reduction of hyphae formation at 10 uM in presence of 1 ug/ml nystatin measured at 120 hpf; assay type: functional; design: scale not given: the % may be the effect or the level left
Candida albicans [21] = test: Anti-virulence activity against Candida albicans SC5314 assessed as inhibition of fungal filamentation by measuring reduction in hyphae formation in Spider medium upto 10 uM incubated for 3 to 5 days by stereomicroscopic analysis; assay type: functional, organism-based; settings: time 3-5 day
[22] = Toxicity in zebrafish embryos assessed as mortality treated at 6 hpf and measured at 120 hpf by stereomicroscopic analysis; design: species or system Danio rerio; settings: in vivo
Candida albicans [23] = test: Anti-virulence activity against Candida albicans SC5314 assessed as inhibition of fungal filamentation by measuring reduction of hyphae formation in RPMI medium at 1.3 uM incubated for 3 to 5 days by stereomicroscopic analysis; assay type: functional, organism-based; settings: time 3-5 day
Candida albicans [24] = test: Anti-virulence activity against Candida albicans SC5314 assessed as inhibition of fungal filamentation by measuring reduction in hyphae formation in YPS medium upto 10 uM incubated for 3 to 5 days by stereomicroscopic analysis; assay type: functional, organism-based; settings: time 3-5 day
Candida albicans [25] = test: Anti-virulence activity against Candida albicans SC5314 assessed as inhibition of fungal filamentation by measuring reduction of hyphae formation in Spider medium at 1.3 uM incubated for 3 to 5 days by stereomicroscopic analysis; assay type: functional, organism-based; settings: time 3-5 day
Candida albicans [26] = test: Anti-virulence activity against Candida albicans SC5314 assessed as inhibition of fungal filamentation by measuring reduction of hyphae formation in GlcNAc medium at 1.3 uM incubated for 3 to 5 days by stereomicroscopic analysis; assay type: functional, organism-based; settings: time 3-5 day
Candida albicans [27] = test: Anti-virulence activity against Candida albicans SC5314 assessed as inhibition of fungal filamentation by measuring reduction in hyphae formation in SLAD medium upto 10 uM incubated for 3 to 5 days by stereomicroscopic analysis; assay type: functional, organism-based; settings: time 3-5 day
Candida albicans [28] = test: Anti-virulence activity against Candida albicans SC5314 assessed as inhibition of fungal filamentation by measuring reduction in hyphae formation in GlcNAc medium upto 10 uM incubated for 3 to 5 days by stereomicroscopic analysis; assay type: functional, organism-based; settings: time 3-5 day
[29] = Toxicity against zebrafish embryo infected with 53-75 RFP expressing cells of Candida albicans M137 assessed as mortality at 2.5 to 10 uM treated at 1 hr post-infection and measured on day 4 post-infection; design: species or system Danio rerio; settings: 96 h, dose 2.5-10 µM, time 4 day
Candida albicans [30] = test: as §1, with “(reference value: 10%)” for “relative to control”; assay type: functional; settings: time 4 day
Candida albicans [31] = test: Anti-virulence activity against 120-140 RFP expressing cells of Candida albicans M137 infected in hind brain of zebra fish embryo disseminated candidiasis model assessed as embryo survival rate at 10 uM in presence of 0.25 ug/ml nystatin measured at 120 hpf; assay type: functional
Candida albicans [32] = test: Anti-virulence activity against Candida albicans SC5314 assessed as inhibition of fungal filamentation by measuring reduction in hyphae formation in YPS plus uridine medium upto 10 uM incubated for 3 to 5 days by stereomicroscopic analysis; assay type: functional, organism-based; settings: time 3-5 day
Candida albicans [33] = test: as §1, with “activity” for “activity against”, “at 48 hrs” for “on day 4”, “(reference value: 40%)” for “relative to control”; assay type: functional

SMILES: Nc1nnnn1CCC12CC3CC(CC(C3)C1)C2
- Activity (Candida albicans [1]): Active
- inhibition at 2.5 µM (Candida albicans [2]): 100%
- Activity [3]: Non-Toxic
- inhibition at 2.5 µM (Candida albicans [4]): 100%
- inhibition in vivo at 10 µM (Candida albicans [5]): ≤ 30%
- fold change (FC) (Candida albicans [6]): 7
- MIC (Candida albicans [7]): > 200 µM
- Survival (Candida albicans [8]): <=80%
- Activity (Candida albicans [9]): Active
- inhibition at 2.5 µM (Candida albicans [10]): 100%
- Activity (Candida albicans [11]): Active
- Activity (Candida albicans [12]): 100%
- mortality at 10 µM (Candida albicans [13]): 80%
- MIC [14]: 1 µg/mL
- Activity (Candida albicans [15]): Active
- Activity (Candida albicans [16]): Active
- inhibition at 2.5 µM (Candida albicans [17]): 100%
- Activity (Candida albicans [18]): Active
- fractional inhibitory concentration index (FICI) (Candida albicans [19]): 1
- Activity (Candida albicans [20]): 100%
- Activity (Candida albicans [21]): Active
- LC50 [22]: > 200 µM
- Activity (Candida albicans [23]): Active
- Activity (Candida albicans [24]): Active
- Activity (Candida albicans [25]): Active
- Activity (Candida albicans [26]): Active
- Activity (Candida albicans [27]): Active
- Activity (Candida albicans [28]): Active
- Activity [29]: Non-Toxic
- Survival (Candida albicans [30]): 70%
- survival at 10 µM (Candida albicans [31]): ≤ 30%
- Activity (Candida albicans [32]): Active
- Survival (Candida albicans [33]): 50%
